The values that follow come from patent US20050202511A1, “AMP-activated protein kinase (AMPK) inhibitor screening assay” (priority 2002, published 2005).

Several values for one entry are separate records, joined by “and”; a condition that tells them apart may be missing. Equal entries are not always repeated. Where two headings read alike, the source gives them in different places.

For assay [1], the target named is T1, recombinant á1â1γ2 heterotrimer (T400N) (Homo sapiens, UniProt Q9UGJ0, T400N).
T1 construct: expressed in transfected cells; host or cells: CCL13 cells
T1 sequence (Q9UGJ0 whole entry T400N): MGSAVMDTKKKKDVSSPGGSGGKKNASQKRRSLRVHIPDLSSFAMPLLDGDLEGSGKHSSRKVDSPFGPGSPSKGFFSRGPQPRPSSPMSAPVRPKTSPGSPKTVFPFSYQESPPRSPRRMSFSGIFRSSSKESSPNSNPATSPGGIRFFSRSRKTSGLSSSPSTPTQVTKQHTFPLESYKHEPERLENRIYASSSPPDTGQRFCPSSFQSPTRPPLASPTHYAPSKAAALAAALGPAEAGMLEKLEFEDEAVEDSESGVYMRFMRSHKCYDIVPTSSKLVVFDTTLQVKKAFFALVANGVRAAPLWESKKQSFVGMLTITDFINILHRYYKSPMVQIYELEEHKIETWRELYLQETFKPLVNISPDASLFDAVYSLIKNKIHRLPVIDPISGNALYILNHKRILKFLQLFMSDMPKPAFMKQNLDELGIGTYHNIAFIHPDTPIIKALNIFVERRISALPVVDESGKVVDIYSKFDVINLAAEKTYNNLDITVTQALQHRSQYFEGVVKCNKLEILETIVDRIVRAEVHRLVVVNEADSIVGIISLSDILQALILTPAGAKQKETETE
T1 sequence (P54645 whole entry partner): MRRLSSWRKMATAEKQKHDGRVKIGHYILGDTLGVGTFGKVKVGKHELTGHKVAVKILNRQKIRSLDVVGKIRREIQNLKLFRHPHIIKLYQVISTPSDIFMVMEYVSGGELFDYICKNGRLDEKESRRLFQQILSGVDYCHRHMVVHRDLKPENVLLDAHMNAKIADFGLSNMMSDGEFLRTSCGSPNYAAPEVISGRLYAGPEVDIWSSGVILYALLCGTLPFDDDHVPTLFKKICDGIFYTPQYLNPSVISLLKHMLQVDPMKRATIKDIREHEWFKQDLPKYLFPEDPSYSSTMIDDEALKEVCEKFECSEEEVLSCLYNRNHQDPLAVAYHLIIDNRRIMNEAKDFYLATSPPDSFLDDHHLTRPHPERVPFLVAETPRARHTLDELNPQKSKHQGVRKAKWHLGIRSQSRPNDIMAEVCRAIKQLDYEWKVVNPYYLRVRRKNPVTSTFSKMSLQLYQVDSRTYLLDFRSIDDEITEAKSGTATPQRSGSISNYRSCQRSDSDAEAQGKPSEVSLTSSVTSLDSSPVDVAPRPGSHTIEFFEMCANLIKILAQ
T1 sequence (P80386 whole entry partner): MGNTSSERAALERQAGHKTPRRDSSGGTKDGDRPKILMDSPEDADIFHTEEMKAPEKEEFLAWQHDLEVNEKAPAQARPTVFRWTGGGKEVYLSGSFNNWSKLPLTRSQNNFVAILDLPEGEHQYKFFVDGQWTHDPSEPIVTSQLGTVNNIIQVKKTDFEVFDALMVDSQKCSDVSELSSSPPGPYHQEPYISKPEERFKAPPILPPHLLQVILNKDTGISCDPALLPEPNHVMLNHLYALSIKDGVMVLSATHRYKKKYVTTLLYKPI
Description: AMPK heterotrimer kinase assay, activation by AMP. The conditions noted are these: slow lysis; estimate somewhat less accurate; read-out: A0.5. The format is biochemical. From the text: (§1) Plasmids expressing myc-tagged á1, â1 and γ1, γ2 (with or without WPWS mutations) or γ3 were expressed in CCL13 cells and the recombinant complexes immunoprecipitated using anti-myc antibodies.
(§2) For this reason, the estimates of A0.5 for the H383R and T400N mutants are somewhat less accurate than the others, while no value could be obtained for the R531 G mutant. […] With some mutants, the maximal activation also appeared to be affected.
(§3) PCDNA plasmids (14,25,32) encoding á1, â1 and γ1, γ2 or γ3 were expressed in CCL13 cells (25), subject to “rapid lysis”, immunoprecipitated using anti-myc antibody, and assayed as described previously (33). “Slow lysis” of CCL13 cells was as described by Stein et al (34).

Assay [2] concerns the target T2, recombinant á1â1γ2 heterotrimer (R531G) (Homo sapiens, UniProt Q9UGJ0, R531G).
T2 construct: expressed in transfected cells; host or cells: CCL13 cells
Description: AMPK heterotrimer kinase assay, activation by AMP. The format is biochemical.
Description: as §1, §2, §3

Assay [3] deals with T3, IMPDH2 Tetramer (WT) (Homo sapiens, UniProt P12268).
T3 construct: the full-length protein (1-514); His tag (pHAT20 vector); made in house; host or cells: E. coli
Description: Filter binding assay, full-length protein. The conditions noted are these: for Kd: read-out: B0.5. The source says:
(§4) For IMPDH2, DNAs encoding residues 112-232 or the full-length protein (1-514) were amplified using human liver cDNA (Clontech) as template, and cloned into pHAT20 (Clontech) using 5′-AgeI and 3′-KpnI sites added to the primers. For the other constructs, DNAs encoding residues 582-840 of CLC2, or 416-551 of cystathionine â-synthase, were amplified using human liver cDNA as template, and cloned into pGEX-KG as above using 5′-BamHI and 3′-XhoI sites added to the primers. All mutations were created using the Stratagene QuikChange Site-directed Mutagenesis system.
(§5) The IMPDH2 constructs were His-tagged and were purified on chelating-Sepharose (Pharmacia) charged with 50 mM CoCl2 according to manufacturer's instructions.
(§6) Various concentrations of [^14C]-AMP, [γ^32P] […] Reactions were stopped by spotting 10 ìl onto a Millipore MF Filter Membrane disc and rapidly washing under high vacuum with 1 ml of ice-cold TBS. Radioactivity was determined on the filters by scintillation counting. Non-specific binding (which was trivial) was determined by performing the assay with GST as a control, and was subtracted. […] Data were fitted to the binding models given in the text, using GraphPad Prism 3. Estimates of parameters resulting from fits are quoted in the text and Table 1±standard error, and the curves shown in figures are theoretical curves obtained using those estimates.

For assay [4], the target named is T4, IMPDH2 Tetramer (R224P) (Homo sapiens, UniProt P12268, R224P).
T4 construct: the full-length protein (1-514); His tag (pHAT20 vector); made in house; host or cells: E. coli
In words: Filter binding assay, full-length protein.
Description: as §4, §5, §6

T2 sequence (Q9UGJ0 whole entry R531G): as the sequence (Q9UGJ0 whole entry T400N) above, with N400T, R531G counted along it
T2 sequence (P54645 whole entry partner): as the sequence (P54645 whole entry partner) above
T2 sequence (P80386 whole entry partner): as the sequence (P80386 whole entry partner) above

`Nc1ncnc2c1ncn2[C@@H]1O[C@H](COP(=O)(O)O)[C@@H](O)[C@H]1O` [AMP, adenosine monophosphate]: the EC50 in assay [1] was 95 ± 32 µM; in assay [2] (read-out: A0.5) it was > 100 µM. Moreover, the “effect of adding AMP on activity” value in assay [2] is “inhibited”.
Consider `Nc1ncnc2c1ncn2[C@@H]1O[C@H](COP(=O)(O)OP(=O)(O)OP(=O)(O)O)[C@@H](O)[C@H]1O` [ATP], for which the “h (Hill coefficient)” value in assay [3] is 1.7 and 1.7 ± 0.2; in assay [4], 0.9 ± 0.1. The Kd in assay [3] (Hill equation, 4 sites) came out at 770 µM; in assay [3] it was 760 µM; in assay [4] (Hill equation, 4 sites, read-out: B0.5), 64000 ± 5000 µM.
